In patent US9161935B2 (TEVA PHARMACEUTICAL INDUSTRIES, LTD., priority 2012, dated 2015):

Tested on: Sub-Populations of Crohn's Disease Patients
Assay: CD-LAQ-201 sub-populations of Crohn's disease patients (Example 2)
Type: in vivo, human
Conditions: for Remission - N (%): % / Remission - N (%): N: week 8
Description: This study was conducted according and with similar requirements as presented in Example 1. […] Patients, who have received anti-TNFαs in the past, tend to reflect a more severe, refractory segment of the Crohn's disease population. […] This sub-cohort analysis describes remission rates at week 8 for patients who were classified as having a predominantly inflammatory disease (based on the Montreal classifications) versus those that have a fibrostenotic or penetrating disease.

[1] = Laq 0.5 mg, Oral steroids on Baseline NO
[2] = Laq 0.5 mg, Oral steroids on Baseline YES
[3] = Laq 0.5 mg, Previous Operations NO
[4] = Laq 0.5 mg, Previous Operations YES
[5] = Laq 0.5 mg, Previous use of anti-TNFαs NO
[6] = Laq 0.5 mg, Previous use of anti-TNFαs YES
[7] = Laq 1.0 mg, Oral steroids on Baseline NO
[8] = Laq 1.0 mg, Oral steroids on Baseline YES
[9] = Laq 1.0 mg, Previous Operations NO
[10] = Laq 1.0 mg, Previous Operations YES
[11] = Laq 1.0 mg, Previous use of anti-TNFαs NO
[12] = Laq 1.0 mg, Previous use of anti-TNFαs YES

## CCN(C(=O)c1c(O)c2c(Cl)cccc2n(C)c1=O)c1ccccc1 [laquinimod]
0.5 mg
  effect on remission at week 8 with or without previous anti-TNFαs: remains robust on both sub-populations
0.5 mg or 1 mg
  effect on remission at week 8 in fibrostenotic or penetrating disease: no effect
0.5 mg/day laquinimod
  effectiveness in anti-TNF refractory patients (FIG. 1): robustly effective
1 mg/day laquinimod
  effectiveness in anti-TNF refractory patients (FIG. 1): effective relative to placebo
Laq 0.5 mg, Fibrostenotic
  CDAI Change from Baseline - Mean ± SD: −9.3
  Responders70 - N (%): %: 42.9%
  Responders70 - N (%): N: 3
  Responders100 - N (%): %: 28.6%
  Responders100 - N (%): N: 2
  Remission - N (%): %: 14.3%
  Remission - N (%): N: 1
Laq 0.5 mg, Inflammatory
  CDAI Change from Baseline - Mean ± SD: −125.1
  Responders70 - N (%): %: 68.2%
  Responders70 - N (%): N: 15
  Responders100 - N (%): %: 63.6%
  Responders100 - N (%): N: 14
  Remission - N (%): %: about 60%
  Remission - N (%): N: 13
Laq 0.5 mg, Inflammatory, listed as Laq
  Remission - N (%): %: 59.1%
[1]
  CDAI Change from Baseline - Mean ± SD: −85.3
  Responders70 - N (%): %: 57.9%
  Responders70 - N (%): N: 11
  Responders100 - N (%): %: 47.4%
  Responders100 - N (%): N: 9
  Remission - N (%): %: about 40%
  Remission - N (%): N: 8
Laq 0.5 mg, Oral steroids on Baseline NO, listed as Laq
  Remission - N (%): %: 42.1%
[2]
  CDAI Change from Baseline - Mean ± SD: −119.8
  Responders70 - N (%): %: 70.0%
  Responders70 - N (%): N: 7
  Responders100 - N (%): %: 70.0%
  Responders100 - N (%): N: 7
  Remission - N (%): %: approximately 60%
  Remission - N (%): N: 6
Laq 0.5 mg, Oral steroids on Baseline YES, listed as Laq
  Remission - N (%): %: 60.0%
[3]
  CDAI Change from Baseline - Mean ± SD: −118.1
  Responders70 - N (%): %: 62.5%
  Responders70 - N (%): N: 15
  Responders100 - N (%): %: 58.3%
  Responders100 - N (%): N: 14
  Remission - N (%): %: higher than 50%
  Remission - N (%): N: 13
Laq 0.5 mg, Previous Operations NO, listed as Laq
  Remission - N (%): %: 54.2%
[4]
  CDAI Change from Baseline - Mean ± SD: 3.2
  Responders70 - N (%): %: 60.0%
  Responders70 - N (%): N: 3
  Responders100 - N (%): %: 40.0%
  Responders100 - N (%): N: 2
  Remission - N (%): %: 20.0%
  Remission - N (%): N: 1
[5]
  CDAI Change from Baseline - Mean ± SD: −88.2
  Responders70 - N (%): %: 63.6%
  Responders70 - N (%): N: 7
  Responders100 - N (%): %: 54.5%
  Responders100 - N (%): N: 6
  Remission - N (%): %: 54.5%
  Remission - N (%): N: 6
[6]
  CDAI Change from Baseline - Mean ± SD: −102.7
  Responders70 - N (%): %: 61.1%
  Responders70 - N (%): N: 11
  Responders100 - N (%): %: 55.6%
  Responders100 - N (%): N: 10
  Remission - N (%): %: 44.4%
  Remission - N (%): N: 8
Laq 1.0 mg, Fibrostenotic
  CDAI Change from Baseline - Mean ± SD: −65.8
  Responders70 - N (%): %: 41.7%
  Responders70 - N (%): N: 5
  Responders100 - N (%): %: 41.7%
  Responders100 - N (%): N: 5
  Remission - N (%): %: 16.7%
  Remission - N (%): N: 2
Laq 1.0 mg, Inflammatory
  CDAI Change from Baseline - Mean ± SD: −76.7
  Responders70 - N (%): %: 61.1%
  Responders70 - N (%): N: 11
  Responders100 - N (%): %: 38.9%
  Responders100 - N (%): N: 7
  Remission - N (%): %: 33.3%
  Remission - N (%): N: 6
[7]
  CDAI Change from Baseline - Mean ± SD: −59.4
  Responders70 - N (%): %: 50.0%
  Responders70 - N (%): N: 9
  Responders100 - N (%): %: 33.3%
  Responders100 - N (%): N: 6
  Remission - N (%): %: 22.2%
  Remission - N (%): N: 4
[8]
  CDAI Change from Baseline - Mean ± SD: −93.5
  Responders70 - N (%): %: 58.3%
  Responders70 - N (%): N: 7
  Responders100 - N (%): %: 50.0%
  Responders100 - N (%): N: 6
  Remission - N (%): %: 33.3%
  Remission - N (%): N: 4
[9]
  CDAI Change from Baseline - Mean ± SD: −77.9
  Responders70 - N (%): %: 55.6%
  Responders70 - N (%): N: 10
  Responders100 - N (%): %: 38.9%
  Responders100 - N (%): N: 7
  Remission - N (%): %: 33.3%
  Remission - N (%): N: 6
[10]
  CDAI Change from Baseline - Mean ± SD: −66.0
  Responders70 - N (%): %: 50.0%
  Responders70 - N (%): N: 6
  Responders100 - N (%): %: 41.7%
  Responders100 - N (%): N: 5
  Remission - N (%): %: 16.7%
  Remission - N (%): N: 2
[11]
  CDAI Change from Baseline - Mean ± SD: −38.5
  Responders70 - N (%): %: 27.3%
  Responders70 - N (%): N: 3
  Responders100 - N (%): %: 27.3%
  Responders100 - N (%): N: 3
  Remission - N (%): %: 18.2%
  Remission - N (%): N: 2
[12]
  CDAI Change from Baseline - Mean ± SD: −36.8
  Responders70 - N (%): %: 27.8%
  Responders70 - N (%): N: 5
  Responders100 - N (%): %: 27.8%
